In the supplement of paper PMC10307832:

Assays:
Assay in all cases: relative viability (nuclei count vs DMSO), 5 days (fraction); higher = more cells survive
NCI-H838 = system: NCI-H838
Outline: (§1)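 Dosing by pin tool came one day after lung cancer cell lines were seeded in 1536-well plates, using either one drug or a fixed anchor-drug dose plus five library-drug doses (not always all listed) in √10 steps. After 5 days, nuclei were counted on 4× images. Relative viability is treated-well nuclei count divided by vehicle-well nuclei count, and values are medians of duplicate plates.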

HARA = system: HARA
Outline: as §1

BEN = system: BEN
Outline: as §1

NCI-H441 = system: NCI-H441
Outline: as §1

NCI-H2126 = system: NCI-H2126
Outline: as §1

NCI-H23 = system: NCI-H23
Outline: as §1

NCI-H2023 = system: NCI-H2023
Outline: as §1

NCI-H3122 = system: NCI-H3122
Outline: as §1

NCI-H2347 = system: NCI-H2347
Outline: as §1

LCLC-103H = system: LCLC-103H
Outline: as §1

NCI-H647 = system: NCI-H647
Outline: as §1

201T = system: 201T
Outline: as §1

NCI-H596 = system: NCI-H596
Outline: as §1

LOU-NH91 = system: LOU-NH91
Outline: as §1

EMC-BAC-2 = system: EMC-BAC-2
Outline: as §1

NCI-H1666 = system: NCI-H1666
Outline: as §1

NCI-H2009 = system: NCI-H2009
Outline: as §1

NCI-H2087 = system: NCI-H2087
Outline: as §1

NCI-H727 = system: NCI-H727
Outline: as §1

NCI-H1395 = system: NCI-H1395
Outline: as §1

HCC-44 = system: HCC-44
Outline: as §1

NCI-H650 = system: NCI-H650
Outline: as §1

NCI-H1993 = system: NCI-H1993
Outline: as §1

**Q.** With O=C(O)c1ccc(-c2c[nH]c3ncc(-c4ccccc4)cc23)cc1C1CCCC1 + C[C@]1(O)C[C@@H](c2nc(-c3ccc4ccc(-c5ccccc5)nc4c3)c3c(N)nccn32)C1 [Linsitinib] (partner 1 µM) as the compound, how does the relative viability (NCI-H838; first compound 0.04 µM) read?
**A.** 1.03

**Q.** And the relative viability (NCI-H838; first compound 0.1265 µM)?
**A.** 1.16

**Q.** What about the relative viability (NCI-H838; first compound 0.4 µM) of the same compound?
**A.** 1.09

**Q.** And the relative viability (NCI-H838; first compound 1.265 µM)?
**A.** 0.997

**Q.** And the relative viability (HARA; first compound 0.04 µM)?
**A.** 0.905

**Q.** And the relative viability (HARA; first compound 0.1265 µM)?
**A.** 0.983

**Q.** What about the relative viability (HARA; first compound 0.4 µM) of the same compound?
**A.** 0.994

**Q.** What about the relative viability (HARA; first compound 1.265 µM) of the same compound?
**A.** 0.748

**Q.** And the relative viability (BEN; first compound 0.04 µM)?
**A.** 1.03

**Q.** And the relative viability (BEN; first compound 0.1265 µM)?
**A.** 1.03

**Q.** And the relative viability (BEN; first compound 0.4 µM)?
**A.** 0.931

**Q.** And the relative viability (BEN; first compound 1.265 µM)?
**A.** 0.859

**Q.** And the relative viability (NCI-H441; first compound 0.04 µM)?
**A.** 0.666

**Q.** And the relative viability (NCI-H441; first compound 0.1265 µM)?
**A.** 0.674

**Q.** And the relative viability (NCI-H441; first compound 0.4 µM)?
**A.** 0.563

**Q.** And the relative viability (NCI-H441; first compound 1.265 µM)?
**A.** 0.531

**Q.** What about the relative viability (NCI-H2126; first compound 0.04 µM) of the same compound?
**A.** 0.723

**Q.** And the relative viability (NCI-H2126; first compound 0.1265 µM)?
**A.** 0.732

**Q.** What about the relative viability (NCI-H2126; first compound 0.4 µM) of the same compound?
**A.** 0.7

**Q.** What about the relative viability (NCI-H2126; first compound 1.265 µM) of the same compound?
**A.** 0.623

**Q.** What about the relative viability (NCI-H23; first compound 0.04 µM) of the same compound?
**A.** 0.545

**Q.** And the relative viability (NCI-H23; first compound 0.1265 µM)?
**A.** 0.617

**Q.** And the relative viability (NCI-H23; first compound 0.4 µM)?
**A.** 0.559

**Q.** What about the relative viability (NCI-H23; first compound 1.265 µM) of the same compound?
**A.** 0.451

**Q.** What about the relative viability (NCI-H2023; first compound 0.04 µM) of the same compound?
**A.** 0.699

**Q.** And the relative viability (NCI-H2023; first compound 0.1265 µM)?
**A.** 0.665

**Q.** What about the relative viability (NCI-H2023; first compound 0.4 µM) of the same compound?
**A.** 0.734

**Q.** And the relative viability (NCI-H2023; first compound 1.265 µM)?
**A.** 0.676

**Q.** What about the relative viability (NCI-H3122; first compound 0.04 µM) of the same compound?
**A.** 0.966

**Q.** And the relative viability (NCI-H3122; first compound 0.1265 µM)?
**A.** 1.02

**Q.** What about the relative viability (NCI-H3122; first compound 0.4 µM) of the same compound?
**A.** 0.942

**Q.** What about the relative viability (NCI-H3122; first compound 1.265 µM) of the same compound?
**A.** 0.838

**Q.** And the relative viability (NCI-H2347; first compound 0.04 µM)?
**A.** 0.975

**Q.** And the relative viability (NCI-H2347; first compound 0.1265 µM)?
**A.** 1.11

**Q.** What about the relative viability (NCI-H2347; first compound 0.4 µM) of the same compound?
**A.** 0.927

**Q.** And the relative viability (NCI-H2347; first compound 1.265 µM)?
**A.** 0.67

**Q.** And the relative viability (LCLC-103H; first compound 0.04 µM)?
**A.** 1.04

**Q.** And the relative viability (LCLC-103H; first compound 0.1265 µM)?
**A.** 1.04

**Q.** And the relative viability (LCLC-103H; first compound 0.4 µM)?
**A.** 1.17

**Q.** And the relative viability (LCLC-103H; first compound 1.265 µM)?
**A.** 1.08

**Q.** And the relative viability (NCI-H647; first compound 0.04 µM)?
**A.** 1.18

**Q.** What about the relative viability (NCI-H647; first compound 0.1265 µM) of the same compound?
**A.** 1.18

**Q.** And the relative viability (NCI-H647; first compound 0.4 µM)?
**A.** 1.02

**Q.** What about the relative viability (NCI-H647; first compound 1.265 µM) of the same compound?
**A.** 1.03

**Q.** And the relative viability (201T; first compound 0.04 µM)?
**A.** 1.07

**Q.** And the relative viability (201T; first compound 0.1265 µM)?
**A.** 1.06

**Q.** And the relative viability (201T; first compound 0.4 µM)?
**A.** 0.979

**Q.** And the relative viability (201T; first compound 1.265 µM)?
**A.** 0.946

**Q.** What about the relative viability (NCI-H596; first compound 0.04 µM) of the same compound?
**A.** 0.974

**Q.** And the relative viability (NCI-H596; first compound 0.1265 µM)?
**A.** 1.05

**Q.** And the relative viability (NCI-H596; first compound 0.4 µM)?
**A.** 1.19

**Q.** And the relative viability (NCI-H596; first compound 1.265 µM)?
**A.** 1.03

**Q.** What about the relative viability (LOU-NH91; first compound 0.04 µM) of the same compound?
**A.** 0.983

**Q.** And the relative viability (LOU-NH91; first compound 0.1265 µM)?
**A.** 0.962

**Q.** What about the relative viability (LOU-NH91; first compound 0.4 µM) of the same compound?
**A.** 0.899

**Q.** And the relative viability (LOU-NH91; first compound 1.265 µM)?
**A.** 0.788

**Q.** What about the relative viability (EMC-BAC-2; first compound 0.04 µM) of the same compound?
**A.** 0.823

**Q.** And the relative viability (EMC-BAC-2; first compound 0.1265 µM)?
**A.** 0.866

**Q.** What about the relative viability (EMC-BAC-2; first compound 0.4 µM) of the same compound?
**A.** 0.819

**Q.** And the relative viability (EMC-BAC-2; first compound 1.265 µM)?
**A.** 0.79

**Q.** And the relative viability (NCI-H1666; first compound 0.04 µM)?
**A.** 0.755

**Q.** What about the relative viability (NCI-H1666; first compound 0.1265 µM) of the same compound?
**A.** 0.829

**Q.** And the relative viability (NCI-H1666; first compound 0.4 µM)?
**A.** 0.703

**Q.** What about the relative viability (NCI-H1666; first compound 1.265 µM) of the same compound?
**A.** 0.81

**Q.** And the relative viability (NCI-H2009; first compound 0.04 µM)?
**A.** 1.23

**Q.** What about the relative viability (NCI-H2009; first compound 0.1265 µM) of the same compound?
**A.** 1.21

**Q.** And the relative viability (NCI-H2009; first compound 0.4 µM)?
**A.** 1.15

**Q.** And the relative viability (NCI-H2009; first compound 1.265 µM)?
**A.** 1.08

**Q.** And the relative viability (NCI-H2087; first compound 0.04 µM)?
**A.** 0.959

**Q.** And the relative viability (NCI-H2087; first compound 0.1265 µM)?
**A.** 1.03

**Q.** What about the relative viability (NCI-H2087; first compound 0.4 µM) of the same compound?
**A.** 0.97

**Q.** And the relative viability (NCI-H2087; first compound 1.265 µM)?
**A.** 0.859

**Q.** What about the relative viability (NCI-H727; first compound 0.04 µM) of the same compound?
**A.** 0.381

**Q.** What about the relative viability (NCI-H727; first compound 0.1265 µM) of the same compound?
**A.** 0.361

**Q.** And the relative viability (NCI-H727; first compound 0.4 µM)?
**A.** 0.243

**Q.** And the relative viability (NCI-H727; first compound 1.265 µM)?
**A.** 0.294

**Q.** And the relative viability (NCI-H1395; first compound 0.04 µM)?
**A.** 1.11

**Q.** And the relative viability (NCI-H1395; first compound 0.1265 µM)?
**A.** 1.06

**Q.** What about the relative viability (NCI-H1395; first compound 0.4 µM) of the same compound?
**A.** 1.08

**Q.** And the relative viability (NCI-H1395; first compound 1.265 µM)?
**A.** 0.796

**Q.** What about the relative viability (HCC-44; first compound 0.04 µM) of the same compound?
**A.** 0.664

**Q.** And the relative viability (HCC-44; first compound 0.1265 µM)?
**A.** 0.636

**Q.** And the relative viability (HCC-44; first compound 0.4 µM)?
**A.** 0.515

**Q.** What about the relative viability (HCC-44; first compound 1.265 µM) of the same compound?
**A.** 0.57

**Q.** What about the relative viability (NCI-H650; first compound 0.04 µM) of the same compound?
**A.** 0.844

**Q.** What about the relative viability (NCI-H650; first compound 0.1265 µM) of the same compound?
**A.** 1.04

**Q.** And the relative viability (NCI-H650; first compound 0.4 µM)?
**A.** 0.861

**Q.** What about the relative viability (NCI-H650; first compound 1.265 µM) of the same compound?
**A.** 0.679

**Q.** And the relative viability (NCI-H1993; first compound 0.04 µM)?
**A.** 0.745

**Q.** What about the relative viability (NCI-H1993; first compound 0.4 µM) of the same compound?
**A.** 0.681

**Q.** What about the relative viability (NCI-H1993; first compound 1.265 µM) of the same compound?
**A.** 0.753
